Data from ChEMBL document CHEMBL1201862, “PubChem BioAssay data set” (2004).
Calls of active or inactive are those of the source.

Columns and labels:
[1] = Luminescence Cell-Based Dose Confirmation HTS to Identify Activators of 5'UTR Stem-Loop Driven Alpha-Synuclein mRNA Translation in H4 Neuroglioblastoma Cells. [Related pubchem assays: 1829 (Project Summary), 1814 (Primary HTS)]; assay type: functional
[2] = Luminescence Cell-Based Dose Response HTS to Identify Activators of Luciferase Translation or Activity in H4 […] Cells. [Related pubchem assays: 1829 (Project Summary), 1814 (Primary HTS)]; assay type: functional
H4 = test: Luminescence Cell-Based Dose Response HTS to Identify Activators of 5'UTR Stem-Loop Driven Prion Protein mRNA Translation in H4 Neuroglioblastoma Cells. [Related pubchem assays: 1829 (Project Summary), 1814 (Primary HTS)]; assay type: functional; settings: Homo sapiens
[3] = Shn3 3'UTR reporter inhibitors, dose response, cell-based, Clone20 osteoblasts, firefly luciferase, cherry-picked (AID 624132); assay type: functional;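 also: firefly luciferase luminescence from reporter carrying the Shn3 3'UTR in osteoblasts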
[4] = HepG2 cell cytotoxicity, dose response, cytotoxicity control for Shn3 inhibitor project, CellTiter-Glo, cherry-picked (AID 624134); assay type: functional, cell-based
[5] = control 3'UTR Renilla luciferase suppression, dose response, counter-screen for Shn3 inhibitor project, cell-based, Clone20-Shn3RL, cherry-picked (AID 624133); assay type: functional
[6] = molecular target: Matrix metalloproteinase-14 (Homo sapiens, UniProt P50281); test: Dose Response confirmation of uHTS hits for a small molecule inhibitors of MT1-MMP activation in a fluorescence assay set 2.; assay type: functional
[7] = molecular target: T1, Ubiquitin-conjugating enzyme E2 N (Homo sapiens, UniProt P61088); assay type: functional;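 also: Dose-response confirmation in a TR-FRET assay detecting UBC13-driven polyubiquitin chain formation, inhibition measured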
T1 sequence (P61088 whole entry): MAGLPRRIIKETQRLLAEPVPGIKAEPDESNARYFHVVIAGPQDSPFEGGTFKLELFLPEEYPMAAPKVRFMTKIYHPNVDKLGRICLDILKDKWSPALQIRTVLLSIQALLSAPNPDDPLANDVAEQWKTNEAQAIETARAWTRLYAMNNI

Interleukin-8 = Interleukin-8 (Homo sapiens, UniProt P10145); test: Dose Response confirmation of uHTS small molecule hits for cystic fibrosis induced NFkb Inhibitors in a PAF-induced IL8 counterscreen.; assay type: functional; settings: read-out: IC50_Mean
[8] = molecular target: Ras and Rab interactor 1/Tyrosine-protein kinase ABL1 (Homo sapiens, UniProt P00519+Q13671); assay type: functional;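 also: biochemical TR-FRET dose-response test measuring inhibition of binding between Rin1 and Abl proteins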
[9] = HeLa cell cytotoxicity, dose response, cytotoxicity control for MgcRacGAP inhibitor project (AID 624300); assay type: functional
[10] = molecular target: T2, Rac GTPase-activating protein 1 (Homo sapiens, UniProt Q9H0H5); test: MgcRacGAP GTPase-activating activity inhibitors, confirmation, biochemical, ADP Hunter fluorescence, primary and confirmatory (AID 624330); assay type: functional
T2 sequence (Q9H0H5 whole entry): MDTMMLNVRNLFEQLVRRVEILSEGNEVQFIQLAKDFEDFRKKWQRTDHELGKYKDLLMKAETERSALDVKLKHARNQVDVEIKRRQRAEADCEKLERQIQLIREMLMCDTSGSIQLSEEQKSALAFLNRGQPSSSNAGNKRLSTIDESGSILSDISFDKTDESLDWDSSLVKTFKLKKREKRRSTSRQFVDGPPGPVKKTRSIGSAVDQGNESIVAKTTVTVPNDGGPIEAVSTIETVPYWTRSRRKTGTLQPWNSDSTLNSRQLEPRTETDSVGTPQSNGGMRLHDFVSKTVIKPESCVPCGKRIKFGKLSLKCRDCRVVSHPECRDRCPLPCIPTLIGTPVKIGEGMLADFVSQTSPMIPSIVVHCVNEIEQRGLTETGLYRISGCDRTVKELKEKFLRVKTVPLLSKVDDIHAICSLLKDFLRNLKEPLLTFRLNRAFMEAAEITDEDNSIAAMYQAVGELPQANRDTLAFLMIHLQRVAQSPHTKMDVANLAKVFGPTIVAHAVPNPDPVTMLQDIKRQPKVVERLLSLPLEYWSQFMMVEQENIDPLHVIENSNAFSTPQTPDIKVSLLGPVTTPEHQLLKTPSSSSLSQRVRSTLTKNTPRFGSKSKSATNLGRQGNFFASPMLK

[11] = molecular target: T3, DNA repair protein RAD52 homolog (Homo sapiens, UniProt P43351); assay type: functional, biochemical
T3 sequence (P43351 whole entry): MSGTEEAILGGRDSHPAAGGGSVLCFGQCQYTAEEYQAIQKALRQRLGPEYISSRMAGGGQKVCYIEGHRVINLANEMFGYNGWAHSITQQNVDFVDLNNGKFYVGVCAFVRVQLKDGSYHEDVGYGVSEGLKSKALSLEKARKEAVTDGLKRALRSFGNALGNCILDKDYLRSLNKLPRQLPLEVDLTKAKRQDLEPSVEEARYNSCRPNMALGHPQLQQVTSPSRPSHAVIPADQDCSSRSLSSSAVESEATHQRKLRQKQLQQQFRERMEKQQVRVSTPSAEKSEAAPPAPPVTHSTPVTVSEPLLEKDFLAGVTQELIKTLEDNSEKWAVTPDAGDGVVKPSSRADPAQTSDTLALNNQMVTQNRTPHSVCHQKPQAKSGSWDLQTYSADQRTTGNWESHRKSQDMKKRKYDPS

[12] = molecular target: Glucose-6-phosphate 1-dehydrogenase (Homo sapiens, UniProt P11413); test: human G6PD enzyme inhibitors, dose response, selectivity assay for P. falciparum G6PD inhibitor project, biochemical, fluorescence (AID 504792); assay type: functional
[13] = Fluorescence-based cell-based high throughput dose response assay for inhibitors of the interaction of nucleotide-binding oligomerization domain containing 2 (NOD2) and the receptor-interacting serine-threonine kinase 2 (RIPK2).; assay type: functional; settings: Homo sapiens
Beta Lactamase = Beta Lactamase (Pseudomonas aeruginosa, UniProt Q932Y6); test: beta-lactamase reporter inhibitor potency, dose response, artefact control for NOD2-RIPK2 interaction inhibitor project, BLA reporter cells, FRET fluorescence (AID 651552); assay type: functional, cell-based
Beta-lactamase [14] = molecular target: Beta-lactamase (Salmonella choleraesuis (strain SC-B67), UniProt Q5J463); test: Epi-absorbance-based counterscreen for selective VIM-2 inhibitors: dose response biochemical high throughput screening assay to identify inhibitors of TEM-1 serine-beta-lactamase.
Beta-lactamase [15] = molecular target: T4, Beta-lactamase (Pseudomonas aeruginosa, UniProt Q79MP6); test: IMP-1 metallo-beta-lactamase inhibitors, dose response, selectivity assay for VIM-2 inhibitor project, biochemical, epi-absorbance (AID 1920)
Beta-lactamase [16] = molecular target: T4, Beta-lactamase; test: […] counterscreen for selective VIM-2 inhibitors: dose response biochemical high throughput screening assay to identify inhibitors of IMP-1 metallo-beta-lactamase.
[17] = molecular target: Long-chain-fatty-acid--AMP ligase FadD28 (Mycobacterium tuberculosis, UniProt P9WQ59); test: Fluorescence polarization aasay to screen for inhibitors that compete for the binding of FadD28 to a bisubstrate Measured in Biochemical System Using Plate Reader - 2147-01_Inhibitor_Dose_CherryPick_Activity.; assay type: functional, Mycobacterium tuberculosis H37Rv
[18] = HEK293T cell cytotoxicity, dose response, cytotoxicity control for HIV Vif inhibitor project, cherry-picks (AID 652208); assay type: functional, cell-based
[19] = molecular target: DNA (cytosine-5)-methyltransferase 1 (Homo sapiens, UniProt P26358); test: DNMT1 methyltransferase inhibitors, confirmation, biochemical, fluorescent molecular beacon (AID 602386); assay type: functional
DNA (cytosine-5)-methyltransferase 1, sequence (P26358 whole entry): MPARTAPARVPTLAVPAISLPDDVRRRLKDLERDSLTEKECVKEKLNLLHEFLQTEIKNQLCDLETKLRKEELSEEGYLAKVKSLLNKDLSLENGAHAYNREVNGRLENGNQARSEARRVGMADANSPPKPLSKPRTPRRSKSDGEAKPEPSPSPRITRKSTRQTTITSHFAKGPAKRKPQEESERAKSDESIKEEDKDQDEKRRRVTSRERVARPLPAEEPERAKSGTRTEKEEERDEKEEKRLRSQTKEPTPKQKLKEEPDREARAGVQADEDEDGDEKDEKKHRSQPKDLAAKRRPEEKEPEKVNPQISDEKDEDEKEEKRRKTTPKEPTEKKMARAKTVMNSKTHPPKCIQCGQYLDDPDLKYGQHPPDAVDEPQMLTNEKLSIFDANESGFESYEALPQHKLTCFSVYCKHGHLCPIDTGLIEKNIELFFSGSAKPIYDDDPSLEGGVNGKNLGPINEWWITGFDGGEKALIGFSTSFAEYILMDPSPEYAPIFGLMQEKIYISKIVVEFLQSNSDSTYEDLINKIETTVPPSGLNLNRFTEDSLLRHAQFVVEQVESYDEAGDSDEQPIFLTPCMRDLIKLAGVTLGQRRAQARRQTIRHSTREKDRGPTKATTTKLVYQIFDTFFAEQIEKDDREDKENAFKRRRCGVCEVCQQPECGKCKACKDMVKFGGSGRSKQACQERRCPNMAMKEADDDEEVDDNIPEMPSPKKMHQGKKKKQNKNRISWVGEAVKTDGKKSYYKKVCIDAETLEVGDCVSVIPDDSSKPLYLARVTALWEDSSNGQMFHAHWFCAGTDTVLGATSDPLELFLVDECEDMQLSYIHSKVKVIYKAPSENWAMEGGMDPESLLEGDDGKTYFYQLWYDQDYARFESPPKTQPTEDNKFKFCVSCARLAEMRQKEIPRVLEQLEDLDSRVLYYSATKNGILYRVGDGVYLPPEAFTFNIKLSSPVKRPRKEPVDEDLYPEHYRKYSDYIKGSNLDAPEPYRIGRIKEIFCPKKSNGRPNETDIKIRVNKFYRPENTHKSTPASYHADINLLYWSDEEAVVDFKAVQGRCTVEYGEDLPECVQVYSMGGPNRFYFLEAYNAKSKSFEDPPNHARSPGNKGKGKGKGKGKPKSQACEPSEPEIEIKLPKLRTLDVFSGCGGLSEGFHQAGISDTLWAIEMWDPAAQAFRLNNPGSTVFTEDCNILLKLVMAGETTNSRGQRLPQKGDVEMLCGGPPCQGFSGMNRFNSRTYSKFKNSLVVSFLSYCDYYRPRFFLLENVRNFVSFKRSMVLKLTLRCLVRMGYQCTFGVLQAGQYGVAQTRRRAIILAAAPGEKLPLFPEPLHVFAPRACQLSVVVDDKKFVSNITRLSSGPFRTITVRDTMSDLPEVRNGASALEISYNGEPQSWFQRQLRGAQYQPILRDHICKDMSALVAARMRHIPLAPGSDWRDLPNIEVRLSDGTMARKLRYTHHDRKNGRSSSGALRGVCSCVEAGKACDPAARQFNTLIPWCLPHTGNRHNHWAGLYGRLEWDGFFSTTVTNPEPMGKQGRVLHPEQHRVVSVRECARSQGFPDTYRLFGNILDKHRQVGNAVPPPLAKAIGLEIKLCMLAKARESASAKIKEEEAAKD

T4 sequence (Q79MP6 whole entry): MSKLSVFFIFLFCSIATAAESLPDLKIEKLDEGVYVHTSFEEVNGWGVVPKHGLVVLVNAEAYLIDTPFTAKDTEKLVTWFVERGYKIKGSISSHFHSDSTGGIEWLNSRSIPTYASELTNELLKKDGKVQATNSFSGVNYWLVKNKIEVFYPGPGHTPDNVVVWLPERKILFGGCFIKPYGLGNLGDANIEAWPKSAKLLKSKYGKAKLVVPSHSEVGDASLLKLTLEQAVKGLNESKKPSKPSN
Interleukin-8, sequence (P10145 whole entry): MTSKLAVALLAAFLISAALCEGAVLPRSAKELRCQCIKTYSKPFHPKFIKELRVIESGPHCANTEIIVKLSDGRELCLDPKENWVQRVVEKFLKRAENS
Beta-lactamase (Salmonella choleraesuis (strain SC-B67), UniProt Q5J463), sequence (Q5J463 whole entry): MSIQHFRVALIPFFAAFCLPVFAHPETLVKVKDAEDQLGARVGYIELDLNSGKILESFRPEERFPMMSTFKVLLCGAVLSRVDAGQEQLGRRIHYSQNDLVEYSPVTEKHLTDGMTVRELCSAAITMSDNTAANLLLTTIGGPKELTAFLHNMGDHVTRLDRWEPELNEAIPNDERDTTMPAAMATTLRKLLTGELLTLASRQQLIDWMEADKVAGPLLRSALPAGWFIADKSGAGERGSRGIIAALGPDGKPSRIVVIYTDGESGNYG
Ras and Rab interactor 1/Tyrosine-protein kinase ABL1, sequence (P00519 whole entry): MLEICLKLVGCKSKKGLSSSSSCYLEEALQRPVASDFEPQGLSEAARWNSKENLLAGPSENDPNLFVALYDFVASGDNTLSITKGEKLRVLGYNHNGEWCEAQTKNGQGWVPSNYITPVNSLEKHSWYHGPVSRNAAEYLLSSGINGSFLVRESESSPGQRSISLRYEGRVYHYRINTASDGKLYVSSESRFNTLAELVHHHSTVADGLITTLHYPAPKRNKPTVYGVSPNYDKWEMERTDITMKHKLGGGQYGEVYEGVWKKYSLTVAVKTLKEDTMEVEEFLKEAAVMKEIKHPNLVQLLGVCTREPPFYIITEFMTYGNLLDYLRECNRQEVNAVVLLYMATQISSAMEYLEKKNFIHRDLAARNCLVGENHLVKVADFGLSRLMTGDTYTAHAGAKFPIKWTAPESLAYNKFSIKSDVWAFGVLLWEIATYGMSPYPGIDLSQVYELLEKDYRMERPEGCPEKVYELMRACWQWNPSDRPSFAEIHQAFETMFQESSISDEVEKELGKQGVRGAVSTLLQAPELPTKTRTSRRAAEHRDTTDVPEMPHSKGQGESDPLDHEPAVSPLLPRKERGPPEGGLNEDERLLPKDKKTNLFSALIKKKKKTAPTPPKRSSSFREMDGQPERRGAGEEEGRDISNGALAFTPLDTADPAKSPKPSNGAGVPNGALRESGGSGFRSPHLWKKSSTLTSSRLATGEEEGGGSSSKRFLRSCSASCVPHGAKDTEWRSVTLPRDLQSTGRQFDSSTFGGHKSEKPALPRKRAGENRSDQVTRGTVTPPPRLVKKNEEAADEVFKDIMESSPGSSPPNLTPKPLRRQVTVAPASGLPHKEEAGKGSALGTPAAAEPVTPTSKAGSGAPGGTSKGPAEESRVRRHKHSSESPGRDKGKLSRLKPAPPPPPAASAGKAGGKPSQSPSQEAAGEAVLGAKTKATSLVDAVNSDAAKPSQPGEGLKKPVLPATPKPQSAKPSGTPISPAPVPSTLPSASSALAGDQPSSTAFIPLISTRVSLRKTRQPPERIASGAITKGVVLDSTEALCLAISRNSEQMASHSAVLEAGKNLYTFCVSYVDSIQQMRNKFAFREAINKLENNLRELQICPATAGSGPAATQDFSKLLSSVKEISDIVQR
Ras and Rab interactor 1/Tyrosine-protein kinase ABL1, sequence (Q13671 whole entry): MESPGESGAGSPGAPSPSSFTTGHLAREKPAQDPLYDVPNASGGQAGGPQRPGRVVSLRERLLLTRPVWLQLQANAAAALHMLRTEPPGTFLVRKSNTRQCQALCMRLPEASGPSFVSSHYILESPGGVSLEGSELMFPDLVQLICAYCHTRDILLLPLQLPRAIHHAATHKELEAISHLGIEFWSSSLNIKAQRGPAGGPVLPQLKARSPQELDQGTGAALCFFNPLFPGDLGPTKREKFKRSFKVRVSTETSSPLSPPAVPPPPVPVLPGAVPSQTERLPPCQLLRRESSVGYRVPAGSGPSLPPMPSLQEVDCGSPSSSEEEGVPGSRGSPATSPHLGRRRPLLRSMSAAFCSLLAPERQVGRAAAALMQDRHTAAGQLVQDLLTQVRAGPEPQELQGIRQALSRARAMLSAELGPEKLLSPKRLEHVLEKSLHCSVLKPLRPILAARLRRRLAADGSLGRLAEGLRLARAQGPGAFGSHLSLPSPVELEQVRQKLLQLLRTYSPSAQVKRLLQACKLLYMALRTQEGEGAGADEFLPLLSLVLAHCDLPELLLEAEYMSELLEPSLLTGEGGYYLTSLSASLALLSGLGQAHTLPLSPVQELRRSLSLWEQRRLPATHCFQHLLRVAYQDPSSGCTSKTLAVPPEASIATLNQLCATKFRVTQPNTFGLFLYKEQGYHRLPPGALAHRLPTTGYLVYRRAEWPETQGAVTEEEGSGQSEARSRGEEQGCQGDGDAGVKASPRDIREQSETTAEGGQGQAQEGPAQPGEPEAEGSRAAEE
Long-chain-fatty-acid--AMP ligase FadD28, sequence (P9WQ59 whole entry): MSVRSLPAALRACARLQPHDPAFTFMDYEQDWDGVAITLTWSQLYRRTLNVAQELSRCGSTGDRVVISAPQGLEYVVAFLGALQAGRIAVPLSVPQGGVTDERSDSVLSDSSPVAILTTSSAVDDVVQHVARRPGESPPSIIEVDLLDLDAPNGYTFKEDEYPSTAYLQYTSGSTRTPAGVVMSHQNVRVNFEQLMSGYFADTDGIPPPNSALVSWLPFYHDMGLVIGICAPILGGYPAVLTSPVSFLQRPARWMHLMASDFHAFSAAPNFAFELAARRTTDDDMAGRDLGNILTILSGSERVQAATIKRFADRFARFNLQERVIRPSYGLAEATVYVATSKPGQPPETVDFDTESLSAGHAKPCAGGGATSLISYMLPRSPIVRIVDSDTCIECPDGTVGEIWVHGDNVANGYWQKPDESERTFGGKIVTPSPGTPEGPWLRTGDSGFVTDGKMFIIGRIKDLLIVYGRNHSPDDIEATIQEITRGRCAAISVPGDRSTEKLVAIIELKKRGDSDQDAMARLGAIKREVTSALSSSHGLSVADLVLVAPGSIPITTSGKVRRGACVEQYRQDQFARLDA
Beta Lactamase, sequence (Q932Y6 whole entry): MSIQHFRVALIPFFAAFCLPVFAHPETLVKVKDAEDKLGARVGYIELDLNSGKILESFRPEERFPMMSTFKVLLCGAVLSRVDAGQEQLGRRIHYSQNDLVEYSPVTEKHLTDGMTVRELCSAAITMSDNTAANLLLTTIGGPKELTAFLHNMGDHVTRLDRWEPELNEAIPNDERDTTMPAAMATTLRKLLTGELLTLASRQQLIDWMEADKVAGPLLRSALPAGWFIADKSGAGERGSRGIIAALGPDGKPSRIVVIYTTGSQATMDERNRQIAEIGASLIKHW

For `CC[n+]1c(/C=C/Nc2ccccc2)sc2ccccc21`, the EC50 [1] was > 120 µM (not active), the EC50 [2] was > 120 µM (not active) and the EC50 (H4) was > 120 µM (not active). For the same compound, the AC50 [3] was 2.06 µM (active), the AC50 [4] was > 70 µM (inactive) and the AC50 [5] was 5.83 µM (active). For the same compound, the IC50 [6] was 23.3 µM (inactive).

For `CN(C)c1ccnc2sc3c(=O)n(Cc4ccccc4)cnc3c12`, the IC50 [7] was > 20 µM (inactive) and the IC50 (Interleukin-8) was 12.2 µM (inactive).

In the case of `COc1cccc2c3cccc(OC)c3c3[nH]cnc3c12`, the IC50 [8] is reported as 15.8 µM (inactive), the CC50 [9] is reported as 43.9 µM (active) and the IC50 [10] is reported as 82.8 µM (active). For the same compound, the AC50 [11] was 0.513 µM (active).

In the case of `Clc1nssc1=Nc1nncs1`, the IC50 [12] is reported as 42.3 µM (inactive), the IC50 [13] is reported as 6.62 µM (active) and the IC50 (Beta Lactamase) is reported as 49.8 µM (inactive).

With `Cc1ccccc1C(=O)Nc1nnc(SCC(=O)NCc2ccco2)s1` the IC50 (Beta-lactamase [14]) was > 59.6 µM (inactive), the IC50 (Beta-lactamase [15]) was > 59.6 µM (inactive) and the IC50 (Beta-lactamase [16]) was > 59.6 µM (inactive).

For `CCn1ncc(Br)c1C(=O)Nc1ccc(OC(F)(F)F)cc1`, the AC50 [17] was 52 µM (active).

For `CC(=O)Nc1ccc(NC(=O)COc2ccccc2C(=O)Nc2cccc(Cl)c2Cl)cc1`, the AC50 [18] was 8.25 µM (active).

In the case of `CCCCCCCCc1nnc(NC(=O)c2ccco2)s1`, the IC50 [19] is reported as 42.4 µM (active).
